Experimental data taken from patent US11000033B2, “Ketone or oxime compound, and herbicide” (NISSAN CHEMICAL CORPORATION, priority 2014, dated 2021).

What was measured:
Assay type in all cases: in vivo
transplanted rice plant = assay: Test Example 1: effect on crop, application before weed generation in submerged conditions (symbol a); conditions: application herbicide amount 320 g/ha
Procedure, shortened: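 Rice at 2.5 leaf stage transplanted into submerged soil (4 cm depth) sown with three weed species; herbicide applied before weed emergence.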

Setaria viridis [1] = assay: Test Example 4: herbicidal effect by soil treatment (symbol G)
Procedure, shortened: (§1)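 Seeds were sown in sterilized diluvial soil, covered with about 1.5 cm of soil, and the soil surface was sprayed with a water-diluted emulsion of the compound at a predetermined rate. Plants grew in a greenhouse at 25° C. to 30° C.; effects were scored visually 3 weeks after application.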

Lolium multiflorum Lam. = assay: Test Example 4: herbicidal effect by soil treatment (symbol K)
Procedure, shortened: as §1

wheat [2] = assay: Test Example 5: effect on crop by foliage application, plastic box (symbol e); conditions: 320 g/ha, 3 weeks after application
Procedure, shortened: (§2)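 In a plastic box 7 cm deep filled with sterilized diluvial soil, seeds of crops and weeds such as Digitaria ciliaris, Avena fatua and Amaranthus retroflexus are sown in spots and covered with about 1.5 cm of soil before greenhouse growth at 25–30° C.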

Stellaria media [3] = assay: Test Example 5: herbicidal effect by foliage application, plastic box (symbol P); conditions: 320 g/ha, 3 weeks after application
Procedure, shortened: (§3)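 Greenhouse foliar test: seedlings at 14 days, grown 25° C. to 30° C. in sterilized diluvial soil; compound applied as an aqueous dilution of an emulsion; response read 3 weeks after spraying.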

Amaranthus retroflexus [4] = assay: Test Example 5: herbicidal effect by foliage application, plastic box (symbol N); conditions: 320 g/ha, 3 weeks after application
Procedure, shortened: as §3

Avena fatua = assay: Test Example 5: herbicidal effect by foliage application, plastic box (symbol I); conditions: 320 g/ha, 3 weeks after application
Procedure, shortened: as §3

Abutilon theophrasti = assay: Test Example 5: herbicidal effect by foliage application, plastic box (symbol M); conditions: 320 g/ha, 3 weeks after application
Procedure, shortened: as §3

[5] = test system: Echinochloa oryzacola Vasing.; assay: Test Example 1: herbicidal activity, application before weed generation in submerged conditions (symbol A); conditions: application herbicide amount 320 g/ha
Procedure, shortened: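 In a flooded pot test with alluvial soil, the emulsion-formulated compound was diluted with water to a predetermined amount and applied to the floodwater immediately on the sowing day. Pots were held in a greenhouse at 25–30 °C for 3 weeks before each weed was rated.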

[6] = test system: Echinochloa crus-galli var. crus-galli; assay: Test Example 3: herbicidal effect by foliage application, Wagner pot (symbol H); conditions: application herbicide amount 320 g/ha
Procedure, shortened: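 Steps: fill pot with alluvial soil; add water to 0.1–0.5 cm depth; sow weed and rice seed; grow 14 days at 25–30 °C; spray diluted emulsion over the leaves; rate effect after 3 weeks.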

wheat [7] = assay: Test Example 4: effect on crop by soil treatment (symbol e)
Procedure, shortened: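 Sterilized diluvial soil, spot sowing, ~1.5 cm soil cover; greenhouse 25–30° C.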

Amaranthus retroflexus [8] = assay: Test Example 4: herbicidal effect by soil treatment (symbol N); conditions: application herbicide amount 320 g/ha
Procedure, shortened: as §1

Setaria viridis [9] = assay: Test Example 5: herbicidal effect by foliage application, plastic box (symbol G); conditions: 320 g/ha, 3 weeks after application
Procedure, shortened: as §3

beet = assay: Test Example 5: effect on crop by foliage application, plastic box (symbol f); conditions: 320 g/ha, 3 weeks after application
Procedure, shortened: as §2

Stellaria media [10] = assay: Test Example 4: herbicidal effect by soil treatment (symbol P); conditions: 320 g/ha
Procedure, shortened: as §1

[11] = application herbicide amount 320 g/ha

| SMILES | Effect grade on crop, a: transplanted rice plant (transplanted rice plant) | e: wheat, effect on crop grade (wheat [2]) | P: Stellaria media, herbicidal effect grade (Stellaria media [3]) | N: Amaranthus retroflexus, herbicidal effect grade (Amaranthus retroflexus [4]) | I: Avena fatua, herbicidal effect grade (Avena fatua) | M: Abutilon theophrasti, herbicidal effect grade (Abutilon theophrasti) | Herbicidal effect grade, A: Echinochloa oryzacola Vasing. [5] | herbicidal effect on H (Echinochloa crus-galli var. crus-galli), grade 0-5 [6] | G: Setaria viridis, herbicidal effect grade (Setaria viridis [9]) | f: beet, effect on crop grade (beet) | G: Setaria viridis, herbicidal effect grade (Setaria viridis [1]; [11]) | K: Lolium multiflorum Lam., herbicidal effect grade (Lolium multiflorum Lam.; [11]) | e: wheat, effect on crop grade (wheat [7]; [11]) | N: Amaranthus retroflexus, herbicidal effect grade (Amaranthus retroflexus [8]) | further results |
| --- | --- | --- | --- | --- | --- | --- | --- | --- | --- | --- | --- | --- | --- | --- | --- |
| C#CCOC1=C(c2c(C)cc(C)cc2C)C(=O)C(CC(C)=NOC)C1 (stereo not drawn) [1-008] | 0 (Herbicidal ratio of 5% or lower (almost no effect)) | 0 (Herbicidal ratio of 5% or lower (almost no effect)) | 0 (Herbicidal ratio of 5% or lower (almost no effect)) | 0 (Herbicidal ratio of 5% or lower (almost no effect)) | 4 (Herbicidal ratio of 70% or higher and lower than 90%) | 2 (Herbicidal ratio of 20% or higher and lower than 40%) | 5 (Herbicidal ratio of 90% or more (almost completely withered)) | 5 (Herbicidal ratio of 90% or more (almost completely withered)) | 5 (Herbicidal ratio of 90% or more (almost completely withered)) | 0 (Herbicidal ratio of 5% or lower (almost no effect)) | – | – | – | – | G (Setaria viridis) herbicidal effect grade (Setaria viridis [1]; [11]): 4 (Herbicidal ratio of 70% or higher and lower than 90%); K (Lolium multiflorum Lam.) herbicidal effect grade (Lolium multiflorum Lam.; [11]): 5 (Herbicidal ratio of 90% or more (almost completely withered)); e (wheat) effect on crop grade (wheat [7]; [11]): 0 (Herbicidal ratio of 5% or lower (almost no effect)); N (Amaranthus retroflexus) herbicidal effect grade (Amaranthus retroflexus [8]): 0 (Herbicidal ratio of 5% or lower (almost no effect)) |
| Cc1cc(C)c(C2=C(O)CC(CC(=O)C(C)C)C2=O)c(C)c1 (stereo not drawn) [2-016] | 4 (Herbicidal ratio of 70% or higher and lower than 90%) | 0 (Herbicidal ratio of 5% or lower (almost no effect)) | 0 (Herbicidal ratio of 5% or lower (almost no effect)) | 3 (Herbicidal ratio of 40% or higher and lower than 70%) | 4 (Herbicidal ratio of 70% or higher and lower than 90%) | 4 (Herbicidal ratio of 70% or higher and lower than 90%) | 4 (Herbicidal ratio of 70% or higher and lower than 90%) | 5 (Herbicidal ratio of 90% or more (almost completely withered)) | 5 (Herbicidal ratio of 90% or more (almost completely withered)) | 0 (Herbicidal ratio of 5% or lower (almost no effect)) | 5 (Herbicidal ratio of 90% or more (almost completely withered)) | 5 (Herbicidal ratio of 90% or more (almost completely withered)) | 0 (Herbicidal ratio of 5% or lower (almost no effect)) | 0 (Herbicidal ratio of 5% or lower (almost no effect)) | – |
| CCCC(=O)C(C(=O)OC)C1CC(O)=C(c2c(C)cc(C)cc2C)C1=O (stereo not drawn) [2-020] | 3 (Herbicidal ratio of 40% or higher and lower than 70%) | 0 (Herbicidal ratio of 5% or lower (almost no effect)) | 0 (Herbicidal ratio of 5% or lower (almost no effect)) | 0 (Herbicidal ratio of 5% or lower (almost no effect)) | 0 (Herbicidal ratio of 5% or lower (almost no effect)) | 0 (Herbicidal ratio of 5% or lower (almost no effect)) | 2 (Herbicidal ratio of 20% or higher and lower than 40%) | 2 (Herbicidal ratio of 20% or higher and lower than 40%) | 5 (Herbicidal ratio of 90% or more (almost completely withered)) | 0 (Herbicidal ratio of 5% or lower (almost no effect)) | 5 (Herbicidal ratio of 90% or more (almost completely withered)) | 4 (Herbicidal ratio of 70% or higher and lower than 90%) | 0 (Herbicidal ratio of 5% or lower (almost no effect)) | 1 (Herbicidal ratio of 5% or higher and lower than 20%) | – |
| Cc1cc(C)c(C2=C(O)CC(CC(=O)CC3CC3)C2=O)c(C)c1 (stereo not drawn) [2-026] | 4 (Herbicidal ratio of 70% or higher and lower than 90%) | 0 (Herbicidal ratio of 5% or lower (almost no effect)) | 0 (Herbicidal ratio of 5% or lower (almost no effect)) | 0 (Herbicidal ratio of 5% or lower (almost no effect)) | 4 (Herbicidal ratio of 70% or higher and lower than 90%) | 0 (Herbicidal ratio of 5% or lower (almost no effect)) | 3 (Herbicidal ratio of 40% or higher and lower than 70%) | 5 (Herbicidal ratio of 90% or more (almost completely withered)) | 5 (Herbicidal ratio of 90% or more (almost completely withered)) | 0 (Herbicidal ratio of 5% or lower (almost no effect)) | 5 (Herbicidal ratio of 90% or more (almost completely withered)) | 5 (Herbicidal ratio of 90% or more (almost completely withered)) | 0 (Herbicidal ratio of 5% or lower (almost no effect)) | 0 (Herbicidal ratio of 5% or lower (almost no effect)) | – |
| CON=C(C)CC1CC(O)=C(c2c(C)cc(-c3ccc(Cl)cc3)cc2C)C1=O (mixture of isomers) [6-029] | 5 (Herbicidal ratio of 90% or more (almost completely withered)) | 5 (Herbicidal ratio of 90% or more (almost completely withered)) | 3 (Herbicidal ratio of 40% or higher and lower than 70%) | 5 (Herbicidal ratio of 90% or more (almost completely withered)) | 5 (Herbicidal ratio of 90% or more (almost completely withered)) | 4 (Herbicidal ratio of 70% or higher and lower than 90%) | 5 (Herbicidal ratio of 90% or more (almost completely withered)) | 5 (Herbicidal ratio of 90% or more (almost completely withered)) | 5 (Herbicidal ratio of 90% or more (almost completely withered)) | 0 (Herbicidal ratio of 5% or lower (almost no effect)) | 5 (Herbicidal ratio of 90% or more (almost completely withered)) | 5 (Herbicidal ratio of 90% or more (almost completely withered)) | 4 (Herbicidal ratio of 70% or higher and lower than 90%) | 0 (Herbicidal ratio of 5% or lower (almost no effect)) | – |
| CON=C(C)CC1CC(OC(=O)N2CCCC2)=C(c2c(C)cc(C)cc2C)C1=O (stereo not drawn) [1-150] | 5 (Herbicidal ratio of 90% or more (almost completely withered)) | – | – | – | – | – | 5 (Herbicidal ratio of 90% or more (almost completely withered)) | 5 (Herbicidal ratio of 90% or more (almost completely withered)) | – | – | – | – | – | – | G: Setaria viridis, herbicidal effect grade (Setaria viridis [1]; 320 g/ha): 0 (Herbicidal ratio of 5% or lower (almost no effect)); K: Lolium multiflorum Lam., herbicidal effect grade (Lolium multiflorum Lam.; 320 g/ha): 5 (Herbicidal ratio of 90% or more (almost completely withered)); e: wheat, effect on crop (criteria 0-5) (wheat [2]): 4 (Herbicidal ratio of 70% or higher and lower than 90%); P: Stellaria media, herbicidal effect (criteria 0-5) (Stellaria media [3]): 0 (Herbicidal ratio of 5% or lower (almost no effect)); N: Amaranthus retroflexus, herbicidal effect (criteria 0-5) (Amaranthus retroflexus [4]): 0 (Herbicidal ratio of 5% or lower (almost no effect)); I: Avena fatua, herbicidal effect (criteria 0-5) (Avena fatua): 5 (Herbicidal ratio of 90% or more (almost completely withered)); M: Abutilon theophrasti, herbicidal effect (criteria 0-5) (Abutilon theophrasti): 3 (Herbicidal ratio of 40% or higher and lower than 70%); e: wheat, effect grade on crop (wheat [7]; 320 g/ha): 1 (Herbicidal ratio of 5% or higher and lower than 20%); P: Stellaria media, herbicidal effect grade (Stellaria media [10]): 0 (Herbicidal ratio of 5% or lower (almost no effect)); G: Setaria viridis, herbicidal effect (criteria 0-5) (Setaria viridis [9]): 4 (Herbicidal ratio of 70% or higher and lower than 90%); f: beet, effect on crop (criteria 0-5) (beet): 0 (Herbicidal ratio of 5% or lower (almost no effect)) |
